Here are results for 15 molecules from patent US4596890A, “Benzoylureas, and their production and use” (priority 1983, dated 1986).

Holding throughout (assay type): in vivo
For experiment [1], the system named is tobacco cutworm (Spodoptera litura). In words: Test Example 2: insecticidal test on tobacco cutworm fourth larvae, artificial diet. Conditions: 144 h. On the procedure:
(§1) Anyone of Compound Nos. 1 to 12 (10 parts), polyoxyethylene styrylphenyl ether (14 parts), calcium dodecylbenzenesulfonate (6 parts), xylene (35 parts) and dimethylformamide (35 parts) are mixed well to make an emulsifiable concentrate preparation.
An emulsifiable concentrate preparation formulated as in Formulation Example 2 was diluted with water to make a designed dilution of the test compound. An artificial diet (13 g) for tobacco cutworm (Spodoptera litura) was impregnated with said dilution (2 ml) and placed into a polyethylene-made cup of 11 cm in diameter. Fourth larvae (10 insects) of tobacco cutworm were released therein. Six days thereafter, observation was made to determine the number of death, and the LC50 value (i.e. lethal concentration to 50% death) was calculated therefrom (two replications).

The subject of experiment [2] is rice stem borer (Chilo suppressalis). Nature of the experiment: Test Example 3: insecticidal test on rice stem borer ten-day old larvae, artificial diet. Conditions: 192 h, eight days, two replications. On the procedure: as §1
An emulsifiable concentrate preparation formulated as in Formulation Example 2 was diluted with water to make a designed dilution of the test compound. Five grams of artificial diet placed into a polyethylene-made cup of 5.5 cm in diameter was impregnated with said dilution (1 ml). Ten-day old larvae (10 insects) of rice stem borer (Chilo suppressalis) were released therein. Eight days thereafter, observation was made to determine the number of death, and the LC50 value was calculated therefrom (two replications).

For experiment [3], the system named is common mosquito (Culex pipiens pallens). Nature of the experiment: Test Example 1: emergence of common mosquito from last instar larvae. To be noted: 3.5 ppm in water; twenty last instar larvae; feeding up to emergence; two replications. On the procedure:
as §1
An emulsifiable concentrate preparation formulated as in Formulation Example 2 was diluted with water to make a dilution containing the test compound in a concentration of 3.5 ppm. The dilution (100 ml) was charged in a plastic cup of 180 ml volume, and twenty last instar larvae of common mosquito (Culex pipiens pallens) were released therein. Feeding was continued up to emergence, and the rate of emergence was observed (two replications).

Experiment [4] relates to housefly (Musca domestica). In words: Test Example 4: emergence of housefly from nits reared on treated artificial culture. Conditions: 10 ppm dilution (10,000 fold, 28 ml) in artificial culture; fifty nits, cultivated until pupation. On the procedure:
as §1
Powdered animal feed (2 g) was thoroughly mixed with bran (14 g). An emulsifiable concentrate preparation formulated as in Formulation Example 2 was diluted with water to make a 10,000 fold dilution (corresponding to 10 ppm; 28 ml) and added to the above mixture. The resultant mixture was stirred well to make an artificial culture for housefly. Fifty nits of housefly (Musca domestica) were cultivated therein until their pupation. The obtained pupae were placed into a plastic cup, and the rate of emergence was observed.

Setting [5] is: lethal concentration to 50% death, fourth larvae, artificial diet, six days, two replications, read-out: LC50.

In brackets after ≈: the same amount, converted by molar mass. Where two headings read alike, the source gives them in different places.

In the case of `O=C(NC(=O)c1c(F)cccc1F)Nc1ccc(Cl)cc1` [A, Diflubenzuron, reference compound], the LC50 – broadly, the concentration that kills 50% of the test population – in experiment [1] stood at 4.4 µg/mL (≈ 14.2 µM).
For the molecule `O=C(NC(=O)c1c(F)cccc1F)Nc1cc(Cl)c(Oc2c(Cl)c(Cl)c(Cl)c(Cl)c2Cl)c(Cl)c1` [Compound 8], in experiment [2], the LC50 turned out to be 15 µg/mL (≈ 24.6 µM). Further, the Rate of emergence in experiment [3] is 0%.
As to `O=C(NC(=O)c1c(F)cccc1F)Nc1cc(Cl)c(Oc2cc(F)cc(F)c2)c(Cl)c1` [Compound 2, N-2,6-difluorobenzoyl-N'-4-(3,5-difluorophenoxy)-3,5-dichlorophenylurea], the 50% lethal concentration (LC50) came to 12 µg/mL (≈ 25.4 µM) in experiment [2] and 2.5 µg/mL (≈ 5.28 µM) in experiment [1] (setting [5]). Further, the Rate of emergence in experiment [3] and in experiment [4] was 0% each time.
As to `Cc1cc(NC(=O)NC(=O)c2ccccc2Cl)cc(C)c1Oc1cc(F)cc(F)c1` [Compound 4], the LC50 in experiment [2] was determined as 10 µg/mL (≈ 23.2 µM); in experiment [1] (setting [5]), 1.5 µg/mL (≈ 3.48 µM). Also, in experiment [3], the Rate of emergence was 0%.
In turn, `CNC(=O)ON=C(C)SC` [B, Methomyl, reference compound] registered an LC50 in experiment [1] of 8 µg/mL (≈ 49.3 µM).
Take `O=C(NC(=O)c1ccccc1Cl)Nc1cc(Cl)c(Oc2c(F)c(F)c(F)c(F)c2F)c(Cl)c1` [Compound 6]: the Rate of emergence in experiment [3] and in experiment [4] was 0% in each case. Also, the LC50 in experiment [1] (setting [5]) was found to be 2.7 µg/mL (≈ 5.14 µM).
As for `Cc1cc(NC(=O)NC(=O)c2c(F)cccc2Cl)cc(C)c1Oc1c(F)c(F)c(F)c(F)c1F` [Compound 12], the Rate of emergence in experiment [3] stood at 0%.
As for `Cc1cc(NC(=O)NC(=O)c2c(F)cccc2F)cc(C)c1Oc1cc(F)cc(F)c1` [Compound 1, N-2,6-difluorobenzoyl-N'-4-(3,5-difluorophenoxy)-3,5-dimethylphenylurea], the Rate of emergence stood at 0% in experiment [3] and 2% in experiment [4]. In addition, in experiment [1] (setting [5]), the LC50 is 0.5 µg/mL (≈ 1.16 µM).
With `O=C(NC(=O)c1ccccc1Cl)Nc1cc(Cl)c(Oc2c(Cl)c(Cl)c(Cl)c(Cl)c2Cl)c(Cl)c1` [Compound 7], the Rate of emergence in experiment [3] came to 0%.
In turn, `Cc1cc(NC(=O)NC(=O)c2ccccc2Cl)cc(C)c1Oc1c(F)c(F)c(F)c(F)c1F` [Compound 10] came in with a Rate of emergence in experiment [3] of 0%. Also, the LC50 in experiment [1] (setting [5]) is 1.2 µg/mL (≈ 2.48 µM).
In turn, `Cc1cc(NC(=O)NC(=O)c2c(F)cccc2F)cc(C)c1Oc1c(F)c(F)c(F)c(F)c1F` [Compound 9] showed a Rate of emergence in experiment [3] of 0%. In addition, the LC50 in experiment [1] (setting [5]) is 0.64 µg/mL (≈ 1.32 µM).
In the case of `O=C(NC(=O)c1ccccc1Cl)Nc1cc(Cl)c(Oc2cc(F)cc(F)c2)c(Cl)c1` [Compound 5], the Rate of emergence in experiment [3] was determined as 0%.
Take `Cc1cc(NC(=O)NC(=O)c2c(F)cccc2Cl)cc(C)c1Oc1cc(F)cc(F)c1` [Compound 11]: in experiment [3], the Rate of emergence stood at 0%. In experiment [1] (setting [5]), the LC50 stood at 1.6 µg/mL (≈ 3.56 µM).
Regarding `O=C(NC(=O)c1c(F)cccc1F)Nc1ccc(Oc2cc(Cl)cc(Cl)c2)cc1` [C, 3-(2,6-difluorobenzoyl)-1-[4-(3,5-dichlorophenoxy)phenyl]urea, reference compound], the LC50 in experiment [1] (setting [5]) was determined as 6.5 µg/mL (≈ 14.9 µM).
Consider `O=C(NC(=O)c1c(F)cccc1F)Nc1cc(Cl)c(Oc2c(F)c(F)c(F)c(F)c2F)c(Cl)c1` [Compound 3], for which the Rate of emergence in experiment [3] and in experiment [4] was 0% in each case. Further, the LC50 in experiment [1] (setting [5]) was 2.3 µg/mL (≈ 4.36 µM).
